Key:
[1] = test system: capillary endothelial cells; conditions: in vitro, capillary endothelial cells plated on fibronectin-coated dishes; cited from earlier work
p53p^ser392 = assay: Western blot of p53 phosphorylated in serine392; type: cell-based, bovine; conditions: FIG. 3
Description: (§1) The capillary endothelial cells were from the laboratory stock of a non-transformed endothelial cell line from bovine adrenal medulla and maintained as previously described. Synchronized cultures (33) were treated with Tunicamycin nanoparticles (1 μg/ml) for 1 h in EMEM containing 2% fetal bovine serum (heat inactivated).
(§2) Performed as before with 7.5% gel concentration.
(§3) To evaluate the biochemical pathway the Tunicamycin nanoparticles are likely to interfere, their effect on the cell cycle progression has been analyzed. The cell cycle antigens have been analyzed focusing primarily on the D-type cycline and their partners because Tunicamycin causes cell cycle arrest in G1. […] Expression of cyclin D1 and its catalytic partner, i.e., CDK4 was analyzed by western blotting. […] There was a little difference with the CDK4 expression. It was higher in cells treated with 20 nm gold particles […], but they both were much reduced compared to the untreated control or cells treated with native Tunicamycin as shown in FIG. 2. p53 is a gate keeper for the cell cycle. Upon phosphorylation p53 migrates to the nucleus and activates gene transcription.

phosphoPERK = assay: Unfolded protein response, western blot of phosphoPERK; type: cell-based, bovine; conditions: FIG. 5
Description: as §1, §2
(§4) It has been observed recently that Tunicamycin inhibits angiogenesis in vitro and in vivo as well as during the breast tumor progression by ER stress-mediated induction of unfolded protein response. In addition, it has also been shown that Tunicamycin gold nanoparticles inhibit capillary endothelial cell cycle progression much more effectively than native Tunicamycin. It was also evaluated if Tunicamycin gold nanoparticles would also activate the pathway that induces the unfolded protein response. The results shown in FIG. 5 indicate that Tunicamycin gold nanoparticles affect both transcription and translation.

CDK4 = assay: Western blot of CDK4 expression in capillary endothelial cells; type: cell-based, bovine; conditions: 1 μg/ml, FIG. 2, for the conjugates also compared to native Tunicamycin
Description: as §1, §2, §3

PERK = assay: Unfolded protein response, western blot of PERK; type: cell-based, bovine; conditions: FIG. 5
Description: as §1, §2, §4

[2] = test system: capillary endothelial cells; assay: MTT assay, capillary endothelial cell viability; type: cell-based, bovine; conditions: 1 μg/ml, 3 h at 37° C., FIG. 1
Description: as §1
Synchronized capillary endothelial cells were incubated with Tunicamycin (1 μg/ml) alone or with 1 μg/ml of Tunicamycin nanoparticles for 3 h at 37° C. in a CO2 incubator (5% CO2 and 95% air) in 96-well microtiter plates. At the end the plates were processed for the MTT Assay. The results shown in FIG. 1 indicate that the cell viability was reduced to almost 50% (p<0.001) when treated with Tunicamycin conjugated to 20 nm or 50 nm gold particles.

angiogenesis = conditions: in vitro/in vivo; cited from earlier work
cyclin D1 = assay: Western blot of cyclin D1 expression in capillary endothelial cells; type: cell-based, bovine; conditions: 1 μg/ml, FIG. 2
Description: as §1, §2, §3

GRP-78/Bip = conditions: shown earlier; cited from earlier work
IRE-1 = assay: Unfolded protein response, western blot of IRE-1; type: cell-based, bovine; conditions: FIG. 5
Description: as §1, §2, §4

breast tumor = conditions: athymic nude mice; cited from earlier work

Compound	formation of capillary tubes [1]	expression of p53 phosphorylated in serine392 (p53p^ser392) (p53p^ser392)	phosphoPERK (translational attenuator) activation (phosphoPERK)	expression of CDK4 compared to the untreated control (CDK4)	PERK activation (PERK)	effect on capillary endothelial cell viability compared to the control [2]	angiogenesis (angiogenesis)	expression of cyclin D1 compared to the untreated control (cyclin D1)	time of treatment at which ER stress is induced (GRP-78/Bip)	IRE-1 (transcriptional attenuator) activation (IRE-1)	breast tumor growth (breast tumor)
OC[C@H]1NC[C@@H](O)[C@@H](O)[C@@H]1O [deoxymannojirimycin]	inhibited the formation of capillary tubes	–	–	–	–	–	–	–	–	–	–
O[C@H]1[C@H]2[C@H](O)CCCN2C[C@H]1O [swainsonine]	did not inhibit tube formation	–	–	–	–	–	–	–	–	–	–
Tunicamycin	–	no effect	either had no effect or the effect is drastically reduced	enhanced	either had no effect or the effect is drastically reduced	does not show any effect	inhibit angiogenesis	enhanced	3 h	either had no effect or the effect is drastically reduced	reduce the breast tumor growth

From patent publication US8524685B1, “Anti-angiogenic therapeutics efficacy enhanced by nanoformulation” (University of Puerto Rico, priority 2010, dated 2013)
